Measured values as given in patent publication EP1175901A1, “PEROXISOME ACTIVATOR-RESPONSIVE RECEPTOR AGONISTS” (Kaneka Corporation, priority 1999, dated 2000).
Marks after values point to notes of the source that are not given here.

Assays:
PPARγ = target: T1, PPARγ (Homo sapiens, UniProt P37231); experiment: PPARγ agonist activity, GAL4-PPARγ chimera / 4×UASg-luc luciferase reporter assay in CV-1 cells; details: for Relative activity (n=3): untreated control = 100
T1 sequence (P37231 204-505): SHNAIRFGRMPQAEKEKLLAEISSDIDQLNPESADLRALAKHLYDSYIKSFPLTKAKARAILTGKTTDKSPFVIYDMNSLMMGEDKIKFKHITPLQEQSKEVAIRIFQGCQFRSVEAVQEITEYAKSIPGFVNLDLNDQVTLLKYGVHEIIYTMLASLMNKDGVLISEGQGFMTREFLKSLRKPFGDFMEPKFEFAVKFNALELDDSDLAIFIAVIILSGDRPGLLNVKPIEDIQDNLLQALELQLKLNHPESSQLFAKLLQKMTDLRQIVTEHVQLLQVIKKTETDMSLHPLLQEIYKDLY
Procedure: Moreover, untreated control groups were established by exchanging with a culture medium prepared by diluting only DMSO with DMEM containing 10% activated-charcoal-treated bovine fetal serum. […] One day after the culture medium exchange, the culture medium was removed, the cells were washed with phosphate buffered saline (PBS), a cell solution was prepared using PicaGene cell solution Luc (made by Toyo Ink), 20µl of the cell solution was reacted with 100µl of a PicaGene luminescent substrate (made by Toyo Ink), and the luciferase activity was measured using a luminometer (Berthold Lumat LB9501) with the measurement time set to 10 seconds.
Letting the ratio of the measurement group (the group for which pM-PPAR and 4×UASg-luc were transfected) to the control group (the group for which pM and 4×UASg-luc were transfected) in the case of the untreated control groups be (a), and the ratio of the measurement group to the control group in the case of the ligand-reagent-added groups be (b), the PPARγ agonist activity caused by the ligand reagent was evaluated using the ratio (b)/(a). To avoid errors due to differences in the transfection efficiency between experiments, TZD (1µm) was put in as positive control groups and the values between the experiments were corrected.

C57BL/6J mice [1] = experiment: Visceral fat reduction: tissue weights in mice made obese on high-fat, high-sugar feed (Example 4); assay type: in vivo; details: obese female C57BL/6J mice, 3 weeks test feed, 7wt% test oil (CLA group: 0.5wt% CLA + 6.5wt% soybean oil)
Procedure: The visceral fat reduction effects or visceral fat accumulation suppression effects of the PPAR agonist and oil/fat composition of the present invention are evaluated by administering the candidate compound to a laboratory animal for a specific time period (e.g. 4 weeks), and then measuring the amount of visceral fat in the adipose tissue around the testes, the adipose tissue around the kidneys and the like.
10-week old female C57BL/6J mice (from Clea Japan) were made obese by keeping for 3 weeks on a high-fat, high-sugar feed (made by Oriental Yeast) having the composition shown in Table 4. The mice were then divided into groups of 8, and were kept for a further 3 weeks on a test feed consisting of a fat-free growth-period-use standard mixed feed (AIN-93G, made by Oriental Yeast) with 2wt% soybean oil as an essential fatty acid source and either 7wt% of a test oil or 7wt% of a control oil added. After 3 weeks, the mice were fed for the last time and then not fed for 16 hours, after which the whole blood was collected from the mice using a heparinized syringe under ether anesthesia, and then the mice were dissected, with the adipose tissue around the kidneys, the adipose tissue around the ovaries, the liver, the kidneys and the spleen being extracted, and the weights thereof being measured. Each organ weight thus obtained was divided by the body weight to obtain the ratio of the organ weight to the body weight. The adipose tissue around the kidneys and the adipose tissue around the ovaries was evaluated as visceral adipose tissue. The collected blood was centrifuged for 15 minutes at 3000 rpm while cooling to obtain the plasma, and then the total cholesterol concentration was measured using Cholesterol C Test Wako (made by Wako Pure Chemical Industries), the neutral lipid concentration using Triglyceride G Test Wako (made by Wako Pure Chemical Industries), and the free fatty acid concentration using NEFA C Test Wako (made by Wako Pure Chemical Industries). The groups set up were a test group for which pomegranate seed oil prepared as in Example 1 was added to the feed (pomegranate seed oil group), a control group for which soybean oil was added to the feed (soybean oil group), and a comparative group for which high-DHA-containing fish oil (DHA content 20wt%, made by Harima Chemicals), which is known to have obesity ameliorating effects, was added to the feed (fish oil group). Also set up was a group for which 6.5wt% of soybean oil and 0.5wt% of CLA (made by Kenko Tsusho, 70% purity) was added to the feed (CLA group). […] Moreover, also set up was a group that were fed a standard feed containing 9wt% of soybean oil throughout the test period right from the start (standard feed group, n=3). During the test period, the mice were allowed to drink water freely, but feeding was limited such that the intake was the same as for the soybean oil group.

C57BL/6J mice [2] = experiment: Lipid metabolism amelioration: plasma lipid concentrations in obese mice (Example 4); assay type: in vivo; details: after 16 hours without feed, 3 weeks test feed, 7wt% test oil (CLA 0.5wt%), soybean oil group = 100
Description: 10-week old female C57BL/6J mice (from Clea Japan) were made obese by keeping for 3 weeks on a high-fat, high-sugar feed (made by Oriental Yeast) having the composition shown in Table 4. The mice were then divided into groups of 8, and were kept for a further 3 weeks on a test feed consisting of a fat-free growth-period-use standard mixed feed (AIN-93G, made by Oriental Yeast) with 2wt% soybean oil as an essential fatty acid source and either 7wt% of a test oil or 7wt% of a control oil added. After 3 weeks, the mice were fed for the last time and then not fed for 16 hours, after which the whole blood was collected from the mice using a heparinized syringe under ether anesthesia, and then the mice were dissected, with the adipose tissue around the kidneys, the adipose tissue around the ovaries, the liver, the kidneys and the spleen being extracted, and the weights thereof being measured. Each organ weight thus obtained was divided by the body weight to obtain the ratio of the organ weight to the body weight. The adipose tissue around the kidneys and the adipose tissue around the ovaries was evaluated as visceral adipose tissue. The collected blood was centrifuged for 15 minutes at 3000 rpm while cooling to obtain the plasma, and then the total cholesterol concentration was measured using Cholesterol C Test Wako (made by Wako Pure Chemical Industries), the neutral lipid concentration using Triglyceride G Test Wako (made by Wako Pure Chemical Industries), and the free fatty acid concentration using NEFA C Test Wako (made by Wako Pure Chemical Industries). The groups set up were a test group for which pomegranate seed oil prepared as in Example 1 was added to the feed (pomegranate seed oil group), a control group for which soybean oil was added to the feed (soybean oil group), and a comparative group for which high-DHA-containing fish oil (DHA content 20wt%, made by Harima Chemicals), which is known to have obesity ameliorating effects, was added to the feed (fish oil group). […]

mice = experiment: Preliminary tests of CLA added to feed (liver enlargement, food intake); assay type: in vivo; details: 1wt% or more of CLA added to the feed

**Q.** What does the source list for conjugated linoleic acid [CLA]?
**A.** Relative activity (mean, n=3) (PPARγ; 20µM final fatty acid concentration, untreated control group = 100): 125; Relative activity (n=3) (PPARγ; concentration 3 (µm [sic]), 3 µM): 129; Relative activity (n=3) (PPARγ; concentration 9 (µm [sic]), 9 µM): 109; Relative activity (n=3) (PPARγ; concentration 30 (µm [sic]), 30 µM): 110; Relative activity (n=3) (PPARγ; concentration 90 (µm [sic]), 90 µM): 159; Relative activity (n=3) (PPARγ; concentration 300 (µm [sic]), 300 µM): 323; Ratio of tissue weight to body weight (mean, n=8): Fat around kidneys (C57BL/6J mice [1]; soybean oil group 0.304): 0.240; Ratio of tissue weight to body weight (mean, n=8): Spleen (C57BL/6J mice [1]; soybean oil group 0.391): 0.450; Ratio of tissue weight to body weight (mean, n=8): Fat around ovaries (C57BL/6J mice [1]; soybean oil group 0.839): 0.650; Ratio of tissue weight to body weight (mean, n=8): Kidneys (C57BL/6J mice [1]; soybean oil group 1.128): 1.280; Ratio of tissue weight to body weight (mean, n=8): Visceral fat (C57BL/6J mice [1]; soybean oil group 1.144): 0.890; Ratio of tissue weight to body weight (mean, n=8): Liver (C57BL/6J mice [1]; soybean oil group 4.454): 4.920; Relative blood lipid concentration (mean, n=8): Free fatty acids (C57BL/6J mice [2]): 71* % of soybean oil group; Relative blood lipid concentration (mean, n=8): Neutral lipids (C57BL/6J mice [2]): 100 mg/dL; Relative blood lipid concentration (mean, n=8): Total cholesterol (C57BL/6J mice [2]): 89 mg/dL; food intake (mice): drop in the mice's food intake; liver enlargement (mice): 1.4 times relative to a control
